Experiments:
[1] = cited from earlier work
[2] = system: cerebral infarction; conditions: focal cerebral ischemia model; Non-Patent References 1 and 2; cited from earlier work
[3] = Storage stability of the bulk; assay type: physicochemical; conditions: should be refrigerated to ensure stability
[4] = Hygroscopicity test (time course weight changes under controlled relative humidity at 25° C.); assay type: physicochemical; design: Time course weight changes: unit not given here; conditions: for Hygroscopicity: ˜0% to 93% RH, up to 7 days
Description: About 1 g each of the compound (I) and the compound (II) of anhydride compound A were weighed accurately in weighing bottles (seven) of known weight, then stored under the following conditions at 25° C., and time course weight changes were measured.
RH herein means relative humidity.

[5] = system: kainic acid neurotoxicity; conditions: tautomer, salt, hydrate or solvate; Patent Reference 1; cited from earlier work
[6] = system: AMPA receptor; conditions: tautomer, salt, hydrate or solvate; Patent Reference 1; cited from earlier work
[7] = system: audiogenic seizure; conditions: DBA/2 mouse; tautomer, salt, hydrate or solvate; Patent Reference 1; cited from earlier work
[8] = ˜0% RH (silica gel), 25° C., Day 1
[9] = ˜0% RH (silica gel), 25° C., Day 2
[10] = ˜0% RH (silica gel), 25° C., Day 4
[11] = ˜0% RH (silica gel), 25° C., Day 7

| Structure (SMILES) | Stability against humidity [4] | Time course weight changes ([4]; 33% RH, 25° C., Day 1) | Time course weight changes ([4]; 33% RH, 25° C., Day 2) | Time course weight changes ([4]; 33% RH, 25° C., Day 4) | Time course weight changes ([4]; 33% RH, 25° C., Day 7) | Time course weight changes ([4]; 51% RH, 25° C., Day 1) | Time course weight changes ([4]; 51% RH, 25° C., Day 2) | Time course weight changes ([4]; 51% RH, 25° C., Day 4) | Time course weight changes ([4]; 51% RH, 25° C., Day 7) | Time course weight changes ([4]; 63.5% RH, 25° C., Day 1) | Time course weight changes ([4]; 63.5% RH, 25° C., Day 2) | Time course weight changes ([4]; 63.5% RH, 25° C., Day 4) | Time course weight changes ([4]; 63.5% RH, 25° C., Day 7) | Time course weight changes ([4]; 75% RH, 25° C., Day 1) | Time course weight changes ([4]; 75% RH, 25° C., Day 2) | Time course weight changes ([4]; 75% RH, 25° C., Day 4) | Time course weight changes ([4]; 75% RH, 25° C., Day 7) | Time course weight changes ([4]; 84% RH, 25° C., Day 1) | Time course weight changes ([4]; 84% RH, 25° C., Day 2) | Time course weight changes ([4]; 84% RH, 25° C., Day 4) | other results |
| --- | --- | --- | --- | --- | --- | --- | --- | --- | --- | --- | --- | --- | --- | --- | --- | --- | --- | --- | --- | --- | --- |
| O=C(O)Cn1c(=O)c(=O)[nH]c2cc([N+](=O)[O-])c(-n3ccnc3)cc21 [1 hydrate of the compound A, [7-(1H-imidazol-1-yl)-6-nitro-2,3-dioxo-3,4-dihydroquinoxalin-1(2H)-yl]acetic acid] |  |  |  |  |  |  |  |  |  |  |  |  |  |  |  |  |  |  |  |  | Water-solubility ([1]; Non-Patent References 1 and 2): high water-solubility; Reducing effect on the volume of cerebral infarction [2]: excellent reducing effect; Storage stability (impurities) [3]: may increase impurities depending on storage condition |
| O=C(O)Cn1c(=O)c(=O)[nH]c2cc([N+](=O)[O-])c(-n3ccnc3)cc21 [compound (I), [7-(1H-imidazol-1-yl)-6-nitro-2,3-dioxo-3,4-dihydroquinoxalin-1(2H)-yl]acetic acid] | excellent stability against humidity | 0.09 | 0.06 | 0.10 | 0.08 | 0.03 | 0.04 | 0.10 | 0.09 | 0.03 | 0.06 | 0.10 | 0.11 | 0.04 | 0.07 | 0.13 | 0.10 | 0.05 | 0.09 | 0.11 | Time course weight changes ([4]; 84% RH, 25° C., Day 7): 0.13; Time course weight changes ([4]; 93% RH, 25° C., Day 1): 0.09; Time course weight changes ([4]; 93% RH, 25° C., Day 2): 0.10; Time course weight changes ([4]; 93% RH, 25° C., Day 4): 0.15; Time course weight changes ([4]; 93% RH, 25° C., Day 7): 0.13; Time course weight changes [4, 8]: 0.03; Time course weight changes [4, 9]: −0.01; Time course weight changes [4, 10]: 0.02; Time course weight changes [4, 11]: 0.01; Hygroscopicity ([4]; 25° C.): stable under any relative humidity conditions almost without showing hygroscopicity |
| O=C(O)Cn1c(=O)c(=O)[nH]c2cc([N+](=O)[O-])c(-n3ccnc3)cc21 [compound A, [7-(1H-imidazol-1-yl)-6-nitro-2,3-dioxo-3,4-dihydroquinoxalin-1(2H)-yl]acetic acid] |  |  |  |  |  |  |  |  |  |  |  |  |  |  |  |  |  |  |  |  | Solubility ([1]; Patent Reference 1): excellent solubility; Inhibitory action against kainic acid neurotoxicity [5]: potent activities; Affinity for the AMPA receptor [6]: high affinity; Anticonvulsant effect for audiogenic seizure [7]: potent activities |
| O=C(O)Cn1c(=O)c(=O)[nH]c2cc([N+](=O)[O-])c(-n3ccnc3)cc21 [compound (II), [7-(1H-imidazol-1-yl)-6-nitro-2,3-dioxo-3,4-dihydroquinoxalin-1(2H)-yl]acetic acid] | unstable against humidity | 5.26 | 5.29 | 5.32 | 5.33 | 5.39 | 5.39 | 5.40 | 5.38 | 5.47 | 5.47 | 5.49 | 5.49 | 5.47 | 5.47 | 5.51 | 5.46 | 5.51 | 5.52 | 5.52 | Time course weight changes ([4]; 84% RH, 25° C., Day 7): 5.51; Time course weight changes ([4]; 93% RH, 25° C., Day 1): 5.52; Time course weight changes ([4]; 93% RH, 25° C., Day 2): 5.49; Time course weight changes ([4]; 93% RH, 25° C., Day 4): 5.54; Time course weight changes ([4]; 93% RH, 25° C., Day 7): 5.51; Absorbed water ([4]; after one day, at least 33% RH or more, 25° C.): 1 mol water per mol compound; Time course weight changes [4, 8]: 0.09; Time course weight changes [4, 9]: 0.08; Time course weight changes [4, 10]: 0.07; Time course weight changes [4, 11]: 0.04; Hygroscopicity ([4]; 25° C.): strong hygroscopicity |

Reference: patent US20050130978A1, “Novel crystal of quinoxalinedione derivative anhydride” (priority 2002, published 2005)
